This is an account of results in patent US8466107B2, “Fibrin-binding peptides and conjugates thereof” (Bracco Imaging SpA, priority 2006, dated 2013).

Numbered stars: 1 amine (or outer) side, 2 acyl side, 3 side chain; on linkers, the order of the positions; unused ones are H or OH. Bridge positions count the residues as written; N and C are the ends. Square brackets hold non-standard residues; d marks the D form. Side chains are listed from the residue outwards. Peptide text beside a SMILES is read from it. * marks the point of attachment. DSPE = distearoyl phosphatidylethanolamine, CCCCCCCCCCCCCCCCCC(=O)OC[C@H](COP(=O)(O)OCCN*)OC(=O)CCCCCCCCCCCCCCCCC; 5FAM = O=C1OC2(c3ccc(O)cc3Oc3cc(O)ccc32)c2ccc(C(=O)*)cc21; Glutaryl = O=C(CCCC(=O)[*:2])[*:1]; Cha = N[C@@H](CC1CCCCC1)C(=O)O; PG4 = not defined here

For assay [1], the target named is DDE (fibrin-derived polypeptide) (Homo sapiens, UniProt P02671+P02675+P02679). Put plainly: Direct binding fluorescence polarization (FP) assay using 5-carboxyfluorescein labeled peptides. The conditions noted are these: 20 nM CF5-labeled peptide, serial dilutions of DDE, anisotropy read at 485 nm; read-out: KD (μM) Direct Binding (n = 2).
A further assay addresses T1, fibrin (Homo sapiens, UniProt P02671+P02675+P02679).
T1 sequence (P02671 36-629 limits assumed): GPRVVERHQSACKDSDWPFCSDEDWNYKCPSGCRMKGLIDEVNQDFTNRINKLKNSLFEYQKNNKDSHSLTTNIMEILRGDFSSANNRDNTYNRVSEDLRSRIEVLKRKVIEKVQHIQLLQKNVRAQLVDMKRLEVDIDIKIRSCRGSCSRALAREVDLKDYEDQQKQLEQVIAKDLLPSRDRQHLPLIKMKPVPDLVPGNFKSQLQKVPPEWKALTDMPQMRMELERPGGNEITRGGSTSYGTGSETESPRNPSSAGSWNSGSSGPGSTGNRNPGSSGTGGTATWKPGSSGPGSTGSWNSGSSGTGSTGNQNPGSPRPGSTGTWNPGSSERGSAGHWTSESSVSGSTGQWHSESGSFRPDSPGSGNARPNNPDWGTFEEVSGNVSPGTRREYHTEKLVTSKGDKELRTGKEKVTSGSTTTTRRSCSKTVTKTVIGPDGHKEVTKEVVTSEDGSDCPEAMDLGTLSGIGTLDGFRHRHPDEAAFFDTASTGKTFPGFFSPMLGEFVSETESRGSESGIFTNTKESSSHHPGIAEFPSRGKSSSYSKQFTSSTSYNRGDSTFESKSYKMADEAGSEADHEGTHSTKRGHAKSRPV
T1 sequence (P02675 45-491 limits assumed): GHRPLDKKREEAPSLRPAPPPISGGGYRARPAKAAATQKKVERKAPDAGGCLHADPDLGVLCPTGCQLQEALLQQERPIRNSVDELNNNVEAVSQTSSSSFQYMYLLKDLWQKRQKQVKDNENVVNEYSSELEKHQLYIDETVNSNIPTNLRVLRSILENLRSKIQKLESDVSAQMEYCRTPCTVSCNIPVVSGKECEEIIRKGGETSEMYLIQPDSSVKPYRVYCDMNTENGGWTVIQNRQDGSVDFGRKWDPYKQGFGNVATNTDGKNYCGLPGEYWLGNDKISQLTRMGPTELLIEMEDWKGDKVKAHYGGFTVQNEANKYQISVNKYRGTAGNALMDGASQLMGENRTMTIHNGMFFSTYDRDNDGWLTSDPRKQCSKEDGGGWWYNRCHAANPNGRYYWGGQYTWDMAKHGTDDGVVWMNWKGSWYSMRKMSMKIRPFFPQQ
T1 sequence (P02679 27-437 isoform P02679-2 limits assumed): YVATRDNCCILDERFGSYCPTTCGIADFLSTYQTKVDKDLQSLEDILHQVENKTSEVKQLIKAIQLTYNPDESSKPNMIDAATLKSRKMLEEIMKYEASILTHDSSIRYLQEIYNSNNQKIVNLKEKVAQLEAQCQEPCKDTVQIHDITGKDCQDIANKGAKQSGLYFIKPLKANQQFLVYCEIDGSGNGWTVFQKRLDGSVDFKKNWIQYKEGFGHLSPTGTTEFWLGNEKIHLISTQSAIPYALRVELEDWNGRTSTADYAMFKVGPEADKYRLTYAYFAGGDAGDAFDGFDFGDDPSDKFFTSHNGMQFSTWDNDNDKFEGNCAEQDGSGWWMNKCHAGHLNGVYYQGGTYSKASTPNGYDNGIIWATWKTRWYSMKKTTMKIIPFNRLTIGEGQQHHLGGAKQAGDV
Put plainly: Dynamic binding test of targeted microvesicles on fibrin-coated coverslips in a parallel-plate flow chamber. The conditions noted are these: shear rate about 114 s^-1, 10 min, 50% human plasma. Here is the method:
Glass coverslips (40 mm in diameter, Bioptechs Inc., Butler, Pa., USA) were coated with fibrin according the following methodology.
Five mL of a solution of BSA 1% w/v in PBS pH 7.4 were added into a 60 mm Petri Dish containing one coverslip, and incubated at 37° C. for 15 min. Then the coverslip was washed three times with 5 ml of Tween 80/PBS (0.1%, v:v). Twenty five μL of human thrombin solution at 5 U/mL were added per mL of human fibrinogen solution (0.5 mg/mL in 50 mM sodium phosphate, NaCl 280 mM, pH 7.4) and delicately mixed. Five mL of this solution were immediately distributed in each Petri dish. The coverslips were incubated for one hour at 37° C. and then dried overnight at 45° C.
Binding studies of targeted microvesicles were carried out using a parallel-plate flow chamber (FCS2, Bioptech Inc., Butler, Pa., USA) with a chamber gasket of 0.25 mm in thickness, with a customized adapter for upside-down chamber inversion. The coated coverslip was inserted as a plate of the flow chamber. Gas-filled Microvesicles (5×10^6 bubbles/mL in 50% human plasma in PBS) were drawn through the flow chamber using an adjustable infusion pump (Auto Syringe® AS50 Infusion Pump, Baxter, Deerfield, Ill., USA) with a 60 mL syringe (Terumo). The pump flow rate was adjusted to 1 mL/min to obtain the desired shear rate of about 114 s^−1. After 10 minutes, the flow was stopped and pictures were taken randomly on different positions on the coverslip (on surfaces of about 0.025 mm^2) using a 40× objective and a CCD monochrome camera (F-View II, Soft Imaging Systems, Germany) connected to an inverted Olympus IX 50 microscope. The number of microvesicles on each picture was determined, averaged with respect to the total number of pictures and the obtained value was then divided by ten (to obtain the “slope”, i.e. the average amount of bound microvesicles per minute).
For each preparation of Examples 17-20, the binding assay was repeated four times thus obtaining an average value of the slope. The slope represents the microvesicle binding rate on the target substrate. […] A higher slope indicates a better capacity of microvesicles to bind to the target under flow conditions.

On to `C[C@@H]1NC(=O)[C@@H]2CCCN2C(=O)[C@@H](NC(=O)[C@@H]2CCCN2C(=O)[C@H](CCC(N)=O)NC(=O)[C@H](Cc2c[nH]c3ccccc23)NC(=O)CN)CSSC[C@@H](C(=O)N[C@@H](Cc2c[nH]c3ccccc23)C(=O)N[C@@H](CC(=O)O)C(=O)N2CCC[C@H]2C(=O)NCC(=O)NCC(=O)NCC(=O)N[C@@H](CCCCNC(=O)c2ccc3c(c2)C(=O)OC32c3ccc(O)cc3Oc3cc(O)ccc32)C(N)=O)NC(=O)[C@H](CC2CCCCC2)NC(=O)[C@H]([C@@H](C)O)NC(=O)[C@H](Cc2c[nH]c3ccccc23)NC(=O)[C@H](CO)NC(=O)[C@H](CCC(=O)O)NC1=O` [Seq051-CF5, GWQPC*PAESWT-Cha-C*WDPGGGK(CF5)-NH2] (H-GWQPCPAESWT[Cha]CWDPGGGK(5FAM)-NH2; disulfide 5-13; N-terminus assumed), for which the Kd in assay [1] worked out at 0.06 µM. On the same count and under the same terms, the value for `CC(=O)N[C@@H](CCCNC(=N)N)C(=O)NCC(=O)N[C@@H](Cc1c[nH]c2ccccc12)C(=O)N[C@@H](CCC(N)=O)C(=O)N1CCC[C@H]1C(=O)N[C@H]1CSSC[C@@H](C(=O)N[C@@H](Cc2c[nH]c3ccccc23)C(=O)N[C@@H](CC(=O)O)C(=O)N2CCC[C@H]2C(=O)NCC(=O)NCC(=O)NCC(=O)N[C@@H](CCCCNC(=O)c2ccc3c(c2)C(=O)OC32c3ccc(O)cc3Oc3cc(O)ccc32)C(N)=O)NC(=O)[C@H](Cc2ccccc2)NC(=O)[C@H]([C@@H](C)O)NC(=O)[C@H](Cc2c[nH]c3ccccc23)NC(=O)[C@H](CO)NC(=O)[C@H](CCC(=O)O)NC(=O)[C@H](Cc2c[nH]c3ccccc23)NC(=O)[C@@H]2CCCN2C1=O` [Seq052-CF5] (Ac-RGWQPCPWESWTFCWDPGGGK(5FAM)-NH2; disulfide 6-14) was 0.53 µM; that for `CC(=O)N[C@@H](CCCNC(=N)N)C(=O)NCC(=O)N[C@@H](Cc1c[nH]c2ccccc12)C(=O)N[C@@H](CCC(N)=O)C(=O)N1CCC[C@H]1C(=O)N[C@H]1CSSC[C@@H](C(=O)N[C@@H](Cc2c[nH]c3ccccc23)C(=O)N[C@@H](CC(=O)O)C(=O)N2CCC[C@H]2C(=O)NCC(=O)NCC(=O)NCC(=O)N[C@@H](CCCCNC(=O)c2ccc3c(c2)C(=O)OC32c3ccc(O)cc3Oc3cc(O)ccc32)C(N)=O)NC(=O)[C@H](CC2CCCCC2)NC(=O)[C@H]([C@@H](C)O)NC(=O)[C@H](Cc2c[nH]c3ccccc23)NC(=O)[C@H](CO)NC(=O)[C@H](CCC(=O)O)NC(=O)[C@H](C)NC(=O)[C@@H]2CCCN2C1=O` [Seq053-CF5, Ac-RGWQPC*PAESWT-Cha-C*WDPGGGK(CF5)-NH2] (Ac-RGWQPCPAESWT[Cha]CWDPGGGK(5FAM)-NH2; disulfide 6-14) was 0.1 µM; that for `C[C@@H]1NC(=O)[C@@H]2CCCN2C(=O)[C@@H](NC(=O)[C@@H]2CCCN2C(=O)[C@H](CCC(N)=O)NC(=O)[C@H](Cc2c[nH]c3ccccc23)NC(=O)CNC(=O)[C@@H](N)CCCNC(=N)N)CSSC[C@@H](C(=O)N[C@@H](Cc2c[nH]c3ccccc23)C(=O)N[C@@H](CC(=O)O)C(=O)N2CCC[C@H]2C(=O)NCC(=O)NCC(=O)NCC(=O)N[C@@H](CCCCNC(=O)c2ccc3c(c2)C(=O)OC32c3ccc(O)cc3Oc3cc(O)ccc32)C(N)=O)NC(=O)[C@H](CC2CCCCC2)NC(=O)[C@H]([C@@H](C)O)NC(=O)[C@H](Cc2c[nH]c3ccccc23)NC(=O)[C@H](CO)NC(=O)[C@H](CCC(=O)O)NC1=O` [Seq054-CF5, RGWQPC*PAESWT-Cha-C*WDPGGGK(CF5)-NH2] (H-RGWQPCPAESWT[Cha]CWDPGGGK(5FAM)-NH2; disulfide 6-14) was 0.05 µM. On the same count and under the same terms, the value for `CC(=O)NCC(=O)N[C@@H](Cc1c[nH]c2ccccc12)C(=O)N[C@@H](CCC(N)=O)C(=O)N1CCC[C@H]1C(=O)N[C@H]1CSSC[C@@H](C(=O)N[C@@H](Cc2c[nH]c3ccccc23)C(=O)N[C@@H](CC(=O)O)C(=O)N2CCC[C@H]2C(=O)NCC(=O)NCC(=O)NCC(=O)N[C@@H](CCCCNC(=O)c2ccc3c(c2)C(=O)OC32c3ccc(O)cc3Oc3cc(O)ccc32)C(N)=O)NC(=O)[C@H](CC2CCCCC2)NC(=O)[C@H]([C@@H](C)O)NC(=O)[C@H](Cc2c[nH]c3ccccc23)NC(=O)[C@H](CO)NC(=O)[C@H](CCC(=O)O)NC(=O)[C@H](C)NC(=O)[C@@H]2CCCN2C1=O` [Seq055-CF5, Ac-GWQPC*PAESWT-Cha-C*WDPGGGK(CF5)-NH2] (Ac-GWQPCPAESWT[Cha]CWDPGGGK(5FAM)-NH2; disulfide 5-13) was 0.08 µM. For the compound `C[C@@H]1NC(=O)[C@@H]2CCCN2C(=O)[C@@H](NC(=O)[C@@H]2CCCN2C(=O)[C@H](CCC(N)=O)NC(=O)[C@H](Cc2c[nH]c3ccccc23)NC(=O)[C@@H](N)CCCNC(=N)N)CSSC[C@@H](C(=O)N[C@@H](Cc2c[nH]c3ccccc23)C(=O)N[C@@H](CC(=O)O)C(=O)N2CCC[C@H]2C(=O)NCC(=O)NCC(=O)NCC(=O)N[C@@H](CCCCNC(=O)c2ccc3c(c2)C(=O)OC32c3ccc(O)cc3Oc3cc(O)ccc32)C(N)=O)NC(=O)[C@H](Cc2ccccc2)NC(=O)[C@H]([C@@H](C)O)NC(=O)[C@H](Cc2c[nH]c3ccccc23)NC(=O)[C@H](CO)NC(=O)[C@H](CCC(=O)O)NC1=O` [Seq056-CF5] (H-RWQPCPAESWTFCWDPGGGK(5FAM)-NH2; disulfide 5-13), the Kd in assay [1] came to 0.06 µM. Regarding `C[C@@H]1NC(=O)[C@@H]2CCCN2C(=O)[C@@H](NC(=O)[C@@H]2CCCN2C(=O)[C@H](CCC(N)=O)NC(=O)[C@H](Cc2c[nH]c3ccccc23)NC(=O)[C@@H](N)CCCNC(=N)N)CSSC[C@@H](C(=O)N[C@@H](Cc2c[nH]c3ccccc23)C(=O)N[C@@H](CC(=O)O)C(=O)N2CCC[C@H]2C(=O)NCC(=O)NCC(=O)NCC(=O)N[C@@H](CCCCNC(=O)c2ccc3c(c2)C(=O)OC32c3ccc(O)cc3Oc3cc(O)ccc32)C(N)=O)NC(=O)[C@H](CC2CCCCC2)NC(=O)[C@H]([C@@H](C)O)NC(=O)[C@H](Cc2c[nH]c3ccccc23)NC(=O)[C@H](CO)NC(=O)[C@H](CCC(=O)O)NC1=O` [Seq057-CF5, RWQPC*PAESWT-Cha-C*WDPGGGK(CF5)-NH2] (H-RWQPCPAESWT[Cha]CWDPGGGK(5FAM)-NH2; disulfide 5-13), the Kd in assay [1] was found to be 0.03 µM.

With “Ac-GWQPC*PWESWTFC*WDPGGGK(DSPE-PG4-Glut)-NH2 (Ac-GWQPCPWESWTFCWDPGGGK([Glutaryl-PG4-DSPE])-NH2; disulfide 5-13; reading uncertain; also: printed as Ac-GWQPC*PWESWTFC*WDPGGGK(DSPE-PG4-Glut)-NH2) [Seq016-PL1]”, the Slope was found to be 11.5 in the assay with fibrin (microvesicles with DSPC/DSPG envelope, Examples 19C-19E (0.45 μmoles lipopeptide, 0.45 μmoles DSPE-PEG1000)) and 8.4 with fibrin (microvesicles with DSPC/stearate envelope containing the lipopeptide (Examples 20A-20D)).

The Kd is the equilibrium constant for the complex coming apart.
